Source: ChEMBL document CHEMBL1201862, “PubChem BioAssay data set” (2004)
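Five compound concentrations were applied to cells in 96-well plates for 48 hours; endpoints were derived by simple linear interpolation of the resulting dose-response curve. GI50 = concentration required for 50% inhibition of growth.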 Activity calls are given as the source filed them. No stated cut-off is given here; in the data, active = GI50 up to about 1.1 µM and inactive = higher.

Legend:
Experiment in all cases: NCI-60 cell line screen, 48 h
[1] = test system: A498
[2] = test system: A549
[3] = test system: ACHN
[4] = test system: CAKI-1
[5] = test system: CCRF-CEM
[6] = test system: COLO 205
[7] = test system: DLD-1
[8] = test system: DMS-114
[9] = test system: DMS-273
[10] = test system: EKVX
[11] = test system: HCC 2998
[12] = test system: HCT-116
[13] = test system: HCT-15
[14] = test system: HL-60
[15] = test system: HOP-62
[16] = test system: HOP-92
[17] = test system: HT-29
[18] = test system: IGROV-1
[19] = test system: K562
[20] = test system: KM-20L2
[21] = test system: KM12
[22] = test system: LOX IMVI
[23] = test system: LXFL 529
[24] = test system: M14
[25] = test system: M19-MEL
[26] = test system: MOLT-4
[27] = test system: NCI-H226
[28] = test system: NCI-H23
[29] = test system: NCI-H460
[30] = test system: NCI-H522
[31] = test system: OVCAR-4
[32] = test system: OVCAR-5
[33] = test system: OVCAR-8
[34] = test system: RPMI-8226
[35] = test system: RXF 393
[36] = test system: RXF 631
[37] = test system: SF-268
[38] = test system: SF-295
[39] = test system: SF-539
[40] = test system: SK-MEL-28
[41] = test system: SK-MEL-2
[42] = test system: SK-MEL-5
[43] = test system: SK-OV-3
[44] = test system: SN12C
[45] = test system: SNB-19
[46] = test system: SNB-75
[47] = test system: SNB-78
[48] = test system: SR
[49] = test system: SW-620
[50] = test system: TK-10
[51] = test system: U-251
[52] = test system: UACC-257
[53] = test system: UACC-62
[54] = test system: UO-31
[55] = test system: XF498
[56] = test system: 786-0
[57] = test system: HOP-18
[58] = test system: Malme-3M
[59] = test system: OVCAR-3

## CC(=O)C(C(=O)C(=O)Nc1cc(Cl)c(Cl)cc1Cl)c1csc(N)n1 (stereo not given)
[1]
  GI50: > 100 µM (inactive)
[2]
  GI50: > 100 µM (inactive)
[3]
  GI50: > 100 µM (inactive)
[4]
  GI50: > 100 µM (inactive)
[5]
  GI50: > 100 µM (inactive)
[6]
  GI50: > 100 µM (inactive)
[7]
  GI50: > 100 µM (inactive)
[8]
  GI50: > 100 µM (inactive)
[9]
  GI50: > 100 µM (inactive)
[10]
  GI50: > 100 µM (inactive)
[11]
  GI50: > 100 µM (inactive)
[12]
  GI50: > 100 µM (inactive)
[13]
  GI50: > 100 µM
[14]
  GI50: > 100 µM (inactive)
[15]
  GI50: > 100 µM (inactive)
[16]
  GI50: > 100 µM (inactive)
[17]
  GI50: > 100 µM (inactive)
[18]
  GI50: > 100 µM (inactive)
[19]
  GI50: > 100 µM (inactive)
[20]
  GI50: > 100 µM (inactive)
[21]
  GI50: > 100 µM (inactive)
[22]
  GI50: > 100 µM (inactive)
[23]
  GI50: > 100 µM (inactive)
[24]
  GI50: > 100 µM (inactive)
[25]
  GI50: > 100 µM (inactive)
[26]
  GI50: > 100 µM (inactive)
[27]
  GI50: > 100 µM (inactive)
[28]
  GI50: > 100 µM (inactive)
[29]
  GI50: > 100 µM (inactive)
[30]
  GI50: > 100 µM (inactive)
[31]
  GI50: > 100 µM (inactive)
[32]
  GI50: > 100 µM (inactive)
[33]
  GI50: > 100 µM (inactive)
[34]
  GI50: > 100 µM (inactive)
[35]
  GI50: > 100 µM (inactive)
[36]
  GI50: > 100 µM (inactive)
[37]
  GI50: > 100 µM (inactive)
[38]
  GI50: > 100 µM (inactive)
[39]
  GI50: > 100 µM (inactive)
[40]
  GI50: > 100 µM (inactive)
[41]
  GI50: > 100 µM (inactive)
[42]
  GI50: > 100 µM (inactive)
[43]
  GI50: > 100 µM (inactive)
[44]
  GI50: > 100 µM (inactive)
[45]
  GI50: > 100 µM (inactive)
[46]
  GI50: > 100 µM (inactive)
[47]
  GI50: > 100 µM (inactive)
[48]
  GI50: > 100 µM (inactive)
[49]
  GI50: > 100 µM (inactive)
[50]
  GI50: > 100 µM (inactive)
[51]
  GI50: > 100 µM (inactive)
[52]
  GI50: > 100 µM (inactive)
[53]
  GI50: > 100 µM (inactive)
[54]
  GI50: > 100 µM (inactive)
[55]
  GI50: > 100 µM (inactive)

## CCCCCCCCCCCC[N+](CCCCCCCCCCCC)=C1SCCS1
[56]
  GI50: 3.52 µM (inactive)
[1]
  GI50: 15.7 µM (inactive)
[2]
  GI50: 4.78 µM (inactive)
[3]
  GI50: 12.5 µM (inactive)
[4]
  GI50: 12.8 µM (inactive)
[6]
  GI50: 8.04 µM (inactive)
[7]
  GI50: 8.47 µM (inactive)
[8]
  GI50: 1.7 µM (inactive)
[9]
  GI50: 3.44 µM (inactive)
[10]
  GI50: 13.1 µM (inactive)
[11]
  GI50: 10.3 µM (inactive)
[12]
  GI50: 2.84 µM (inactive)
[13]
  GI50: 10.7 µM
[14]
  GI50: 0.163 µM (active)
[57]
  GI50: 16.4 µM (inactive)
[15]
  GI50: 16.7 µM (inactive)
[16]
  GI50: 10.8 µM (inactive)
[17]
  GI50: 3.36 µM (inactive)
[18]
  GI50: 10.5 µM (inactive)
[20]
  GI50: 5.28 µM (inactive)
[22]
  GI50: 1.97 µM (inactive)
[23]
  GI50: 3.81 µM (inactive)
[24]
  GI50: 10.5 µM (inactive)
[25]
  GI50: 3.29 µM (inactive)
[26]
  GI50: 2.98 µM (inactive)
[58]
  GI50: 6.64 µM (inactive)
[27]
  GI50: 14.2 µM (inactive)
[28]
  GI50: 2.04 µM (inactive)
[29]
  GI50: 7.28 µM (inactive)
[30]
  GI50: 5.82 µM (inactive)
[59]
  GI50: 7.76 µM (inactive)
[31]
  GI50: 3.6 µM (inactive)
[32]
  GI50: 12.2 µM (inactive)
[33]
  GI50: 2.86 µM (inactive)
[34]
  GI50: 1.49 µM (inactive)
[35]
  GI50: 3.45 µM (inactive)
[36]
  GI50: 11.1 µM (inactive)
[37]
  GI50: 8.04 µM (inactive)
[38]
  GI50: 3.05 µM (inactive)
[39]
  GI50: 12.5 µM (inactive)
[40]
  GI50: 11 µM (inactive)
[41]
  GI50: 10.7 µM (inactive)
[42]
  GI50: 6.07 µM (inactive)
[43]
  GI50: 16.6 µM (inactive)
[44]
  GI50: 3.92 µM (inactive)
[46]
  GI50: 16 µM (inactive)
[47]
  GI50: 3.61 µM (inactive)
[48]
  GI50: 3.14 µM (inactive)
[49]
  GI50: 3.29 µM (inactive)
[50]
  GI50: 15.2 µM (inactive)
[51]
  GI50: 3.26 µM (inactive)
[52]
  GI50: 9.14 µM (inactive)
[53]
  GI50: 10.8 µM (inactive)
[54]
  GI50: 13.4 µM (inactive)

## O=C1/C(=C/c2ccc(Cl)cc2)CNC/C1=C\c1ccc(Cl)cc1
[56]
  GI50: 2.07 µM (inactive)
[1]
  GI50: 2.32 µM (inactive)
[2]
  GI50: 3.4 µM (inactive)
[3]
  GI50: 2.07 µM (inactive)
[4]
  GI50: 2.44 µM (inactive)
[6]
  GI50: 2.03 µM (inactive)
[7]
  GI50: 2.38 µM (inactive)
[9]
  GI50: 1.98 µM (inactive)
[11]
  GI50: 2.23 µM (inactive)
[12]
  GI50: 1.65 µM (inactive)
[13]
  GI50: 1.62 µM
[57]
  GI50: 4.89 µM (inactive)
[15]
  GI50: 3.42 µM (inactive)
[18]
  GI50: 2.17 µM (inactive)
[20]
  GI50: 2.64 µM (inactive)
[21]
  GI50: 1.44 µM (inactive)
[23]
  GI50: 1.09 µM (active)
[24]
  GI50: 1.89 µM (inactive)
[25]
  GI50: 2.1 µM (inactive)
[26]
  GI50: 2.28 µM (inactive)
[58]
  GI50: 3.81 µM (inactive)
[28]
  GI50: 1.95 µM (inactive)
[29]
  GI50: 2.11 µM (inactive)
[30]
  GI50: 2.02 µM (inactive)
[59]
  GI50: 1.86 µM (inactive)
[33]
  GI50: 3.6 µM (inactive)
[34]
  GI50: 0.267 µM (active)
[36]
  GI50: 2.79 µM (inactive)
[39]
  GI50: 1.77 µM (inactive)
[40]
  GI50: 1.82 µM (inactive)
[42]
  GI50: 6.73 µM (inactive)
[43]
  GI50: 10.8 µM (inactive)
[44]
  GI50: 2.67 µM (inactive)
[45]
  GI50: 1.7 µM (inactive)
[46]
  GI50: 2.9 µM (inactive)
[47]
  GI50: 2.65 µM (inactive)
[49]
  GI50: 0.792 µM (active)
[50]
  GI50: 4.06 µM (inactive)
[51]
  GI50: 1.36 µM (inactive)
[53]
  GI50: 2.07 µM (inactive)
[55]
  GI50: 2.83 µM (inactive)
